Results published in ChEMBL document CHEMBL6114980, “Single or double lipid-modified ultra-short antimicrobial peptides for treating infections caused by resistant bacteria” (Eur J Med Chem, 2025).
In brackets after ≈: the same amount, converted by molar mass. Activity calls are given as the source filed them. The rule behind the calls is not given here. Peptide text beside a SMILES is read from it. * marks the point of attachment. Myristoyl = CCCCCCCCCCCCCC(=O)*; Lauroyl = CCCCCCCCCCCC(=O)*; Octanoyl = CCCCCCCC(=O)*

Experiments:
Acinetobacter baumannii = assay: Antibacterial activity against Acinetobacter baumannii ATCC 19606 assessed as reduction in bacterial growth incubated for 18 to 24 hrs by broth microdilution method; assay type: functional; conditions: time 18-24 hrs
Klebsiella pneumoniae = assay: Antibacterial activity against Klebsiella pneumoniae ATCC 700603 assessed as reduction in bacterial growth incubated for 18 to 24 hrs by broth microdilution method; assay type: functional; conditions: time 18-24 hrs
Escherichia coli = assay: Antibacterial activity against Escherichia coli ATCC 25922 assessed as reduction in bacterial growth incubated for 18 to 24 hrs by broth microdilution method; assay type: functional; conditions: time 18-24 hrs
Pseudomonas aeruginosa = assay: Antibacterial activity against Pseudomonas aeruginosa ATCC 27853 assessed as reduction in bacterial growth incubated for 18 to 24 hrs by broth microdilution method; assay type: functional; conditions: time 18-24 hrs
Enterococcus faecalis = assay: Antibacterial activity against Enterococcus faecalis ATCC 29212 assessed as reduction in bacterial growth incubated for 18 to 24 hrs by broth microdilution method; assay type: functional; conditions: time 18-24 hrs
[1] = test system: Staphylococcus epidermidis; assay: Antibacterial activity against Staphylococcus epidermidis ATCC 12228 assessed as reduction in bacterial growth incubated for 18 to 24 hrs by broth microdilution method; assay type: functional; conditions: time 18-24 hrs
Bacillus subtilis = assay: Antibacterial activity against Bacillus subtilis ATCC 23857 assessed as reduction in bacterial growth incubated for 18 to 24 hrs by broth microdilution method; assay type: functional; conditions: time 18-24 hrs
Staphylococcus aureus = assay: Antibacterial activity against Staphylococcus aureus ATCC 25923 assessed as reduction in bacterial growth incubated for 18 to 24 hrs by broth microdilution method; assay type: functional; conditions: time 18-24 hrs
Cell membrane [2] = assay: Induction of cytoplasmic membrane depolarization in Escherichia coli assessed as increase in fluorescence intensity at 0.5 to 2 times MIC measured for 10 mins by DiSC3-5 dye based fluorescence assay
Cell membrane [3] = assay: Induction of cytoplasmic membrane depolarization in Staphylococcus aureus assessed as increase in fluorescence intensity at 0.5 to 4 times MIC measured for 1 mins by DiSC3-5 dye based fluorescence assay

Row | MIC (Acinetobacter baumannii) | MIC (Klebsiella pneumoniae) | MIC (Escherichia coli) | MIC (Pseudomonas aeruginosa) | MIC (Enterococcus faecalis) | MIC [1] | MIC (Bacillus subtilis) | MIC (Staphylococcus aureus) | Activity (Cell membrane [3]) | SMILES | Activity (Cell membrane [2])
1 | 128 µM (≈ 146 µg/mL) | 128 µM (≈ 146 µg/mL) | 128 µM (≈ 146 µg/mL) | 128 µM (≈ 146 µg/mL) | 128 µM (≈ 146 µg/mL) | 128 µM (≈ 146 µg/mL) | 128 µM (≈ 146 µg/mL) | 128 µM (≈ 146 µg/mL) | – | CCCCCCCCCCCC(=O)NCCCC[C@H](NC(=O)CCCCCCCCCCC)C(=O)N[C@@H](CCCCN)C(=O)N[C@@H](CCCCN)C(=O)N[C@@H](Cc1c[nH]c2ccccc12)C(=O)N[C@@H](Cc1c[nH]c2ccccc12)C(N)=O (Lauroyl-K(Lauroyl)KKWW-NH2) | –
2 | 128 µM (≈ 153 µg/mL) | 128 µM (≈ 153 µg/mL) | 128 µM (≈ 153 µg/mL) | 128 µM (≈ 153 µg/mL) | 128 µM (≈ 153 µg/mL) | 128 µM (≈ 153 µg/mL) | 128 µM (≈ 153 µg/mL) | 128 µM (≈ 153 µg/mL) | – | CCCCCCCCCCCCCC(=O)NCCCC[C@H](NC(=O)CCCCCCCCCCCCC)C(=O)N[C@@H](CCCCN)C(=O)N[C@@H](CCCCN)C(=O)N[C@@H](Cc1c[nH]c2ccccc12)C(=O)N[C@@H](Cc1c[nH]c2ccccc12)C(N)=O (Myristoyl-K(Myristoyl)KKWW-NH2) | –
3 | 32 µM (≈ 27.4 µg/mL) | 32 µM (≈ 27.4 µg/mL) | 32 µM (≈ 27.4 µg/mL) | 16 µM (≈ 13.7 µg/mL) | 8 µM (≈ 6.85 µg/mL) | 4 µM (≈ 3.42 µg/mL) | 2 µM (≈ 1.71 µg/mL) | 4 µM (≈ 3.42 µg/mL) | Active | CCCCCCCCCCCCCC(=O)N[C@@H](CCCCN)C(=O)N[C@@H](CCCCN)C(=O)N[C@@H](Cc1c[nH]c2ccccc12)C(=O)N[C@@H](Cc1c[nH]c2ccccc12)C(N)=O (Myristoyl-KKWW-NH2) | Active; Compound Showed Similar Effect As Quality Control Polymyxin B
4 | 128 µM (≈ 98.8 µg/mL) | 128 µM (≈ 98.8 µg/mL) | 64 µM (≈ 49.4 µg/mL) | 16 µM (≈ 12.4 µg/mL) | 128 µM (≈ 98.8 µg/mL) | 32 µM (≈ 24.7 µg/mL) | 4 µM (≈ 3.09 µg/mL) | 32 µM (≈ 24.7 µg/mL) | – | CCCCCCCC(=O)N[C@@H](CCCCN)C(=O)N[C@@H](CCCCN)C(=O)N[C@@H](Cc1c[nH]c2ccccc12)C(=O)N[C@@H](Cc1c[nH]c2ccccc12)C(N)=O (Octanoyl-KKWW-NH2) | –
